The target of test [1] is T1, Protein farnesyltransferase (Homo sapiens, UniProt P49354+P49356). Description: Inhibition of farnesyltransferase by Ras/SPA assay. It counts as protein-complex assay.
Test [2] relates to HCT-116. Description: (§1) […] inhibition of cellular activity in HCT116 colony formation assay. It counts as functional, Homo sapiens.
Test [3] addresses T1, Protein farnesyltransferase. Description: Inhibition of Farnesyltransferase. It counts as protein-complex assay.
The subject of test [4] is HCT-116. The test is described as §1. The following applies: Homo sapiens. It counts as functional.
Test [5] can be described thus: Binding affinity against Ras SPA enzyme.
The test system of test [6] is HCT-116. Description: […] inhibition of cellular activity in HCT116 colony formation assay; CA means cytostatic activity. To be noted: Homo sapiens. Format: functional.
Test [7] can be described thus: Binding affinity against Ras protein.
In test [8] the test system is HCT-116. Description: […] inhibition of cellular activity in HCT116 colony formation assay; AI means almost inactive. It counts as functional. To be noted: Homo sapiens.

Calls of active or inactive are those of the source. The calls are words filed in the database; no cut-off is given here.

As usually defined, the Ki is the dissociation constant of the complex between target and ligand, obtained from inhibition or displacement. Low values mean tighter binding, high ones weaker binding. Broadly, the IC50 is the concentration at which inhibition is half-maximal. Read a low IC50 as greater potency.

In turn, `C=C(C(=O)N1C[C@H]2[C@@]3(c4ccc5c(c4)CCO5)CC[C@H](c4ccccc43)[C@@]2(C(=O)O)C1)c1ccccc1OC` returned a Ki in test [1] of 420 nM.
`C=C(C(=O)N1C[C@H]2[C@@]3(c4ccc(Br)cc4)CC[C@H](c4ccccc43)[C@@]2(C(=O)O)C1)c1ccccc1OC` returned an IC50 in the test on HCT-116 [2] of 59 nM.
Turning to `COc1ccccc1CC(=O)N1C[C@H]2[C@@]3(c4ccccc4)CC[C@](O)(c4ccccc43)[C@@]2(C(=O)O)C1`, the affinity in test [1] corresponds to a Ki of 250 nM. This counts as sub-micromolar.
As for `COc1ccccc1CC(=O)N1C[C@H]2[C@@]3(c4ccccc4)CC[C@H](c4c(O)cccc43)[C@@]2(C(=O)O)C1`, the inhibition constant (Ki) in test [1] stood at 50000 nM.
For the molecule `COc1ccccc1CC(=O)N1C[C@H]2[C@@]3(c4ccccc4)CC[C@H](c4ccccc43)[C@@]2(C(=O)O)C1` (racemic), the half-maximal inhibitory concentration (IC50) is 200 nM in test [3] and over 10000 nM in the test on HCT-116 [4].
In test [1], `COc1ccccc1CC(=O)N1C[C@@H]2[C@@H]3CC[C@@](c4ccccc4)(c4ccccc43)[C@@H]2C1` showed a Ki of 40000 nM.
Molecule `COc1ccccc1CC(=O)N1C[C@H]2[C@@]3(c4ccccc4)CC[C@H](c4ccccc43)[C@@]2(C(=O)NN)C1` displayed a Ki in test [5] of 2450 nM.
`COCCCC(=O)N1C[C@H]2[C@@]3(c4ccccc4)CC[C@H](c4ccccc43)[C@@]2(C(=O)O)C1` showed a Ki in test [5] of 100000 nM.
Take `C=C(C(=O)N1C[C@H]2[C@@]3(c4ccc(C)cc4)CC[C@H](c4ccccc43)[C@@]2(C(=O)O)C1)c1ccccc1OC` (racemic): the IC50 in test [3] was 8 nM; with HCT-116 [4] it was 45 nM. Also, the CA result in the test on HCT-116 [6] is “cytostatic activity”.
Turning to `COc1ccccc1CC(=O)N1C[C@H]2[C@@]3(c4ccccc4)CC[C@H](c4ccccc43)[C@@]2(C(=O)O)C1`, the Ki in test [1] was found to be 140 nM. In other words, the sub-micromolar range.
Turning to `O=C(Cc1ccccc1OCc1ccccc1)N1C[C@H]2[C@@]3(c4ccccc4)CC[C@H](c4ccccc43)[C@@]2(C(=O)O)C1`, the inhibition constant (Ki) in test [1] and in test [7] was 32000 nM throughout.
The molecule `COc1ccccc1CC(=O)N1C[C@H]2[C@@]3(c4ccccc4)CC[C@H](c4ccccc43)[C@@]2(NC(=O)OCc2ccccc2)C1` yielded a Ki in test [5] of 100000 nM.
In test [1], `CONC(=O)[C@]12CN(C(=O)Cc3ccccc3OC)C[C@H]1[C@@]1(c3ccccc3)CC[C@@H]2c2ccccc21` yielded a Ki of 420 nM.
Same read-out and setting: the same measure for `C=C(C(=O)N1C[C@H]2[C@@]3(c4ccc(OCC(=O)O)cc4)CC[C@H](c4ccccc43)[C@@]2(C(=O)O)C1)c1ccccc1OC`: 25500 nM.
For `COc1ccccc1CC(=O)N1C[C@H]2[C@@]3(c4ccccc4)CC[C@H](c4ccccc43)[C@@]2(C(=O)N[C@H](C)c2ccccc2)C1`, the affinity in test [5] corresponds to a Ki of 2080 nM. This counts as single-digit micromolar.
For the molecule `C=C(C(=O)N1C[C@H]2[C@@]3(c4ccccc4)CC[C@H](c4ccccc43)[C@@]2(C(=O)O)C1)c1ccccc1OC` (racemic), in test [1], the affinity, expressed as Ki, was 25 nM. The same molecule returned an IC50 with HCT-116 [4] of 720 nM. The AI entry in the test with HCT-116 [8] is “inactive”.
In turn, `COc1ccccc1CC(=O)N1C[C@H]2[C@@]3(c4ccccc4)CC[C@H](c4ccccc43)[C@@]2(C(=O)NCC(=O)O)C1` had a Ki in test [1] of 738 nM. That is a sub-micromolar value.

The values above are taken from ChEMBL document CHEMBL1132934, “Multivariate data analysis using D-optimal designs, partial least squares, and response surface modeling: A directional approach for the analysis of farnesyltransferase inhibitors” (J Med Chem, 2000).
